Data taken from ChEMBL document CHEMBL3872207, “Aromatic heterocyclic esters of podophyllotoxin exert anti-MDR activity in human leukemia K562/ADR cells via ROS/MAPK signaling pathways” (Eur J Med Chem, 2016).

Assays:
[1] = Downregulation of CDK2 expression in human K562/ADR cells assessed as ratio of CDK2 to beta-actin level at 0.1 uM pretreated with MAPK inhibitor SB203580 for 1 hr followed by compound addition measured after 48 hrs by Western blot analysis (reference value: 0.65); type: functional, cell-based
[2] = tested on: K562/Adr; assay: Induction of intracellular ROS accumulation in human K562/ADR cells assessed as fluorescence intensity at 0.1 uM measured after 24 hrs by DCFH-DA probe based flow cytometry relative to vehicle-treated control; type: functional
[3] = tested on: K562/Adr; assay: Induction of apoptosis in human K562/ADR cells assessed as viable cells at 0.1 uM after 48 hrs by Annexin V-APC/7-AAD staining based flow cytometry (reference value: 95.31%); type: functional; conditions: read-out: Activity
[4] = Downregulation of P-gp expression in human K562/ADR cells assessed as ratio of P-gp to beta-actin level at 0.1 uM pretreated with MAPK inhibitor SB203580 for 1 hr followed by compound addition measured after 48 hrs by Western blot analysis (reference value: 0.63); type: functional, cell-based
[5] = tested on: K562/Adr; assay: Induction of apoptosis in human K562/ADR cells assessed as ratio of cleaved caspase-3 to beta-actin level at 0.1 uM pretreated with MAPK inhibitor SP600125 for 1 hr followed by compound addition measured after 48 hrs by Western blot analysis (reference value: 0.06); type: functional
[6] = tested on: K562/Adr; assay: Induction of apoptosis in human K562/ADR cells assessed as ratio of cleaved caspase-8 to beta-actin level at 0.1 uM pretreated with MAPK inhibitor SB203580 for 1 hr followed by compound addition measured after 48 hrs by Western blot analysis (reference value: 0.07); type: functional
[7] = tested on: K562/Adr; assay: Induction of apoptosis in human K562/ADR cells assessed as ratio of cleaved caspase-9 to beta-actin level at 0.1 uM pretreated with MAPK inhibitor SP600125 for 1 hr followed by compound addition measured after 48 hrs by Western blot analysis (reference value: 0.05); type: functional
[8] = tested on: K562/Adr; assay: Induction of apoptosis in human K562/ADR cells assessed as ratio of cleaved PARP to beta-actin level at 0.1 uM pretreated with MAPK inhibitor SP600125 for 1 hr followed by compound addition measured after 48 hrs by Western blot analysis (reference value: 0.04); type: functional
[9] = tested on: K562/Adr; assay: Induction of apoptosis in human K562/ADR cells assessed as ratio of cleaved caspase-9 to beta-actin level at 0.1 uM pretreated with MAPK inhibitor SB203580 for 1 hr followed by compound addition measured after 48 hrs by Western blot analysis (reference value: 0.05); type: functional
[10] = tested on: K562/Adr; assay: Induction of apoptosis in human K562/ADR cells assessed as ratio of cleaved caspase-8 to beta-actin level at 0.1 uM pretreated with MAPK inhibitor SP600125 for 1 hr followed by compound addition measured after 48 hrs by Western blot analysis (reference value: 0.07); type: functional
[11] = target: T1, c-Jun N-terminal kinase, JNK (Homo sapiens) (UniProt P45983+P53779+P45984); assay: Induction of JNK phosphorylation in human K562/ADR cells assessed as ratio of phosphorylated JNK to beta-actin level at 0.1 uM pretreated with MAPK inhibitor SP600125 for 1 hr followed by compound addition after 48 hrs by Western blotting method (reference value: 0.46); type: cell-based
[12] = tested on: K562/Adr; assay: Induction of apoptosis in human K562/ADR cells assessed as ratio of cleaved PARP to beta-actin level at 0.1 uM pretreated with MAPK inhibitor U0126 for 1 hr followed by compound addition measured after 48 hrs by Western blot analysis (reference value: 0.04); type: functional
[13] = tested on: K562/Adr; assay: Induction of apoptosis in human K562/ADR cells assessed as ratio of cleaved PARP to beta-actin level at 0.1 uM measured after 48 hrs by Western blot analysis (reference value: 0.04); type: functional
[14] = tested on: K562/Adr; assay: Induction of apoptosis in human K562/ADR cells assessed as ratio of cleaved caspase-8 to beta-actin level at 0.1 uM measured after 48 hrs by Western blot analysis (reference value: 0.07); type: functional
[15] = tested on: K562/Adr; assay: Induction of apoptosis in human K562/ADR cells assessed as late apoptotic cells at 0.1 uM pretreated with MAPK inhibitor SB203580 for 1 hr followed by compound addition after 48 hrs by Annexin V-APC/7-AAD staining based flow cytometry (reference value: 1.69%); type: functional; design: scale not given: the % may be the effect or the level left
[16] = Downregulation of CyclinB1 expression in human K562/ADR cells assessed as ratio of CyclinB1 to beta-actin level at 0.1 uM measured after 48 hrs by Western blot analysis (reference value: 0.77); type: functional, cell-based
[17] = target: T1, c-Jun N-terminal kinase, JNK (Homo sapiens); assay: Induction of JNK phosphorylation in human K562/ADR cells assessed as ratio of phosphorylated JNK to beta-actin level at 0.1 uM pretreated with MAPK inhibitor U0126 for 1 hr followed by compound addition after 48 hrs by Western blotting method (reference value: 0.46); type: cell-based
[18] = tested on: K562/Adr; assay: Induction of apoptosis in human K562/ADR cells assessed as late apoptotic cells at 0.1 uM pretreated with MAPK inhibitor SP600125 for 1 hr followed by compound addition after 48 hrs by Annexin V-APC/7-AAD staining based flow cytometry (reference value: 1.69%); type: functional; design: scale not given: the % may be the effect or the level left
[19] = tested on: K562/Adr; assay: Induction of apoptosis in human K562/ADR cells assessed as late apoptotic cells at 0.1 uM after 48 hrs by Annexin V-APC/7-AAD staining based flow cytometry (reference value: 1.69%); type: functional
[20] = Antiproliferative activity against human K562/ADR cells measured after 72 hrs by CCK8 assay; type: functional, cell-based
[21] = Cell cycle arrest in human K562/ADR cells assessed as accumulation at S-phase at 0.1 uM measured after 48 hrs by propidium iodide staining-based flow cytometry (reference value: 47.29 +/- 2.22%); type: functional
[22] = Downregulation of CyclinB1 expression in human K562/ADR cells assessed as ratio of CyclinB1 to beta-actin level at 0.1 uM pretreated with MAPK inhibitor SB203580 for 1 hr followed by compound addition measured after 48 hrs by Western blot analysis (reference value: 0.77); type: functional, cell-based
[23] = tested on: K562/Adr; assay: Induction of apoptosis in human K562/ADR cells assessed as ratio of cleaved caspase-3 to beta-actin level at 0.1 uM pretreated with MAPK inhibitor U0126 for 1 hr followed by compound addition measured after 48 hrs by Western blot analysis (reference value: 0.06); type: functional
[24] = tested on: K562/Adr; assay: Induction of apoptosis in human K562/ADR cells assessed as ratio of cleaved caspase-9 to beta-actin level at 0.1 uM measured after 48 hrs by Western blot analysis (reference value: 0.05); type: functional
[25] = tested on: K562/Adr; assay: Induction of ERK1/2 phosphorylation in human K562/ADR cells assessed as ratio of phosphorylated ERK1/2 to beta-actin level at 0.1 uM pretreated with MAPK inhibitor SB203580 for 1 hr followed by compound addition after 48 hrs by Western blotting method (reference value: 0.22); type: cell-based
[26] = tested on: K562/Adr; assay: Induction of apoptosis in human K562/ADR cells assessed as ratio of cleaved caspase-3 to beta-actin level at 0.1 uM pretreated with ROS scavenger NAC for 2 hrs followed by compound addition measured after 48 hrs by Western blot analysis (reference value: 0.06); type: functional

Structure (SMILES): COc1cc([C@@H]2c3cc4c(cc3[C@H](OC(=O)c3ccco3)[C@H]3COC(=O)[C@H]23)OCO4)cc(OC)c1OC
- Ratio [1]: 0.24
- fold change (FC) [2]: 2.396
- viability at 0.1 µM [3]: 46.1%
- Ratio [4]: 0.34
- Ratio [5]: 0.51
- Ratio [6]: 0.51
- Ratio [7]: 0.47
- Ratio [8]: 0.53
- Ratio [9]: 0.44
- Ratio [10]: 0.47
- Ratio [11]: 0.05
- Ratio [12]: 0.43
- Ratio [13]: 0.84
- Ratio [14]: 0.77
- Activity [15]: 30.87%
- Ratio [16]: 0.19
- Ratio [17]: 0.35
- Activity [18]: 30.33%
- Activity [19]: 40.45%
- IC50 [20]: 32 nM
- Activity [21]: 60.8%
- Ratio [22]: 0.26
- Ratio [23]: 0.49
- Ratio [24]: 0.69
- Ratio [25]: 0.15
- Ratio [26]: 0.2
